One data set deals with MT-2 cells. Nature of the data set: Cytotoxicity in MT-2 cells. Particulars: for % toxicity at that dose (number in parenthesis), MT-2 cells: at the dose given as CC50 bound. Format: cell-based, Human.
A further data set deals with TZM-bl cells. Nature of the data set: Cytotoxicity in TZM-bl cells. Format: cell-based. Particulars: at the dose given as CC50 bound.
For data set [1], the system named is several laboratory strains and primary isolates. Particulars: cited from earlier work.

Counter-ions that a name gives are not always drawn.

Turning to `Cc1nc(C(NC(=O)C(=O)Nc2ccc(Cl)cc2)C2CCCCN2)sc1CCO` (stereo not drawn) [compound 9, N^1-(4-chlorophenyl)-N^2-((5-(2-hydroxyethyl)-4-methylthiazol-2-yl)(piperidin-2-yl)methyl)oxalamide.HCOOH], the “% toxicity at that dose (number in parenthesis), MT-2 cells” value with MT-2 cells was 0%.
As to `Cc1nc(C(NC(=O)C(=O)Nc2ccc(F)c(F)c2)C2CCCCN2)sc1CO` (stereo not drawn) [compound 22, N^1-(3,4-difluorophenyl)-N^2-((5-(hydroxymethyl)-4-methylthiazol-2-yl)(piperidin-2-yl)methyl)oxalamide.HCl], in the data set with TZM-bl cells, the “% toxicity at that dose (number in parenthesis), TZM-bl cells” value is listed as 0%.
On the same count and under the same terms, the value for `Cc1nc(C(NC(=O)C(=O)Nc2ccc(F)cc2)C2CCCCN2)sc1CO` (stereo not drawn) [compound 25, N^1-(4-fluorophenyl)-N^2-((5-(hydroxymethyl)-4-methylthiazol-2-yl)(piperidin-2-yl)methyl)oxalamide.HCl] was 0%.
In the case of `CC1(C)CC(NC(=O)C(=O)Nc2ccc(Cl)cc2)CC(C)(C)N1` [compound 1], the “potency against several laboratory strains and primary isolates” value in data set [1] is given as “low micromolar potency”.
Turning to `CC1(C)CC(NC(=O)C(=O)Nc2ccc(Br)cc2)CC(C)(C)N1` [compound 2], the “potency against several laboratory strains and primary isolates” value in data set [1] is listed as “low micromolar potency”.
For `Cc1ccc(NC(=O)C(=O)NC(c2nc(C)c(CO)s2)C2CCCCN2)cc1F` (stereo not drawn) [compound 28, N^1-(3-fluoro-4-methylphenyl)-N^2-((5-(hydroxymethyl)-4-methylthiazol-2-yl)(piperidin-2-yl)methyl)oxalamide.HCl], the “% toxicity at that dose (number in parenthesis), TZM-bl cells” value with TZM-bl cells is on record as 0%.
Same read-out and setting: the value for `Cc1nc(C(NC(=O)C(=O)Nc2ccc(F)c(Cl)c2)C2CCCCN2)sc1CO` (stereo not drawn) [compound 24, N^1-(3-chloro-4-fluorophenyl)-N^2-((5-(hydroxymethyl)-4-methylthiazol-2-yl)(piperidin-2-yl)methyl)oxalamide.2HCl] was 0%.
Turning to `Cc1nc(C(NC(=O)C(=O)Nc2ccc(Cl)cc2)C2CCCCN2)sc1CCO.O=CO` (stereo not drawn) [compound 30, N^1-(4-chlorophenyl)-N^2-((5-(2-hydroxyethyl)-4-methylthiazol-2-yl)(piperidin-2-yl)methyl)oxalamide.HCOOH], the “% toxicity at that dose (number in parenthesis), MT-2 cells” value in the data set on MT-2 cells worked out at 0%. The CC50 with MT-2 cells (read-out: MT-2 Cells CC50 (μM ± SD), MT-2 cells, XTT, 4 days) is above 62 µM.

As usually defined, the CC50 is the concentration giving 50% cytotoxicity.

(Values after paper PMC3372086 (Journal of Medicinal Chemistry, 2012).)
